Consider 16 compounds from patent publication US20080171706A1, “Anti-Adhesive Compounds to Prevent and Treat Bacterial Infections” (priority 2004, published 2008).

Read-outs that look alike come from different tables or passages of the source.

Holding throughout (assay): biochemical
Assay [1] deals with T1, FimHtrJ96 (Escherichia coli, UniProt P08191).
T1 construct: coding for the lectin domain of FimH (residues 1-158) with a C-terminal 6-histidine tag; made in house; host or cells: E. coli HB101 (lacking the fim operon), periplasmic extract, plasmid pPKL241
The class given is binding, uropathogenic E. coli strain J96. Conditions: for ΔG° J96: Table 3, calculated from KD. The procedure: To measure the dissociation constant for FimH:alkyl or aryl-mannoside binding, two different binding assays were developed. The first binding assay uses [^3H]-mannose. The amount of radioactively labeled mannose bound to FimHtrJ96 was measured at six different concentrations of [^3H]-mannose, and a hyperbolic curve fitted to the resulting data (FIG. 1A). FimHtrJ96 corresponds to the carbohydrate (mannose) binding domain of FimH from the uropathogenic E. coli strain J96. The dissociation equilibrium constant was determined from this graph at the concentration of mannose […], which corresponds to occupation of half of the binding sites.
Surface Plasmon Resonance measurements were performed on a Biacore3000™. In a first experiment, the kinetic constants and maximal binding were determined for the FimH-antibody interaction. Next, a fixed concentration of FimH (close to the KD of the FimH-antibody interaction) in combination with varying concentrations of carbohydrate, were used to determine the dissociation equilibrium constant of the FimH-saccharide interaction in a competition experiment. Every measurement was repeated at least twice, including testing the variation between different protein and saccharide batches.
To eliminate the possibility of different binding strength for full length FimH and FimHtrJ96, the binding of alpha-D-mannose to FimC:FimH complex was also measured. […] The inhibition of [^3H]-mannose binding was used in a displacement assay to determine the dissociation constant for a synthetic butyl mannoside by measuring the amount of [^3H]-mannose bound to the protein in the presence of increasing amounts of the inhibitor (FIG. 1B). […] To investigate the effect of sequential addition of methyl groups to the O1 oxygen of D-mannose, a series of alkyl mannosides were synthesized and the dissociation constants determined using the [^3H]-mannose displacement assay and by surface plasmon resonance (Table 1).
Surface Plasmon Resonance measurements were performed on a Biacore3000™. The Fab fragments of a monoclonal antibody against FimH were covalently immobilised via lysines at 1000 Resonance Units (1000 pg ligand/mm^2) in flowcell Fc2 on a CM5 biasensor chip (BIAapplications Handbook, Biacore AB, Uppsala, Sweden). Immobilisation buffer was 100 mM NaAc pH 5.0 with 100 mM NaCl. The reference flowcell Fc1 was left blank.
Binding of FimH to the immobilized antibody was measured with a Biacore 3000 instrument in running buffer (phosphate buffered saline with 0.005% surfactant P20 and 3 mM EDTA), on both flowcells Fc1 and Fc2 simultaneously, at a flow rate of 30 μl/min and at 25° C. Complete dissociation of FimH was done with running buffer before starting a new binding cycle. For all measurements, the association time was 3 minutes, the dissociation time was 30 min. All binding cycles were performed in duplicate, including a zero concentration cycle of FimH (injection of running buffer).
In a first experiment, the kinetic constants, ka and kd, and the maximal binding Rmax, were determined for the FimH-antibody interaction (FimH concentrations (nM): 2000, 1000, 500, 250, 125, 62.5, 31.25, 15.625, 7.818, 3.911, 1.957, 0). All analyses were performed with the BIAeval software. A Langmuir binding isotherm with a 1:1 stoichiometry was fitted to the data, from which the kinetic constants and maximal binding were obtained.
In the next experiment, samples containing a fixed concentration of FimH (close to the KD of the FimH-antibody interaction) in combination with varying concentrations of saccharide, were used to determine the dissociation constant of the FimH-saccharide interaction in a competition experiment. First, ten-fold dilutions of the saccharide solution were used to determine the concentration range for binding of the saccharide to FimH.

For assay [2], the target named is T2, FimHtrCl#4 (Escherichia coli, UniProt P08191, G94E/N91S/S99N/V48A).
T2 construct: coding for the lectin domain of FimH (residues 1-158) with a C-terminal 6-histidine tag; made in house; host or cells: E. coli HB101 (lacking the fim operon), periplasmic extract, plasmid pMAS146
The format is binding, E. coli UPEC (Cl#4) strain. The settings on record: for Kd: Table 3, [3H]-mannose displacement assay (mannose measured directly), read-out: KD CI#4; for ΔG° CI#4: Table 3, calculated from KD. The procedure: (§1) To investigate if these variations reflect differences in sugar binding at the molecular level, the dissociation constants of a series of mannosides for the FimH lectin domain from a fecal (F18) and from a UPEC (Cl#4) strain were determined. […] For comparison, binding to FimHtrJ96 was also investigated. Both F18 and Cl#4 FimH lectin domains were cloned, expressed, and purified in the same way as FimHtrJ96 (Schembri et al., 2000). These two lectin domains differ from the lectin domain of FimHJ96 by substitutions Val27Ala, Asn70Ser and Ser78Asn. In addition, FimHCl#4 differs from the other two variants by a Gly73Glu substitution. […] Five different tri-mannosides corresponding to high-mannose substructures were synthesized, and their binding to FimHtrJ96, FimHtrF18 and FimHtrCl#4 measured using our [^3H]-mannose displacement assay (Table 3). Alpha-D-mannose binding was first directly measured for each of the FimH variants.
(§2) [^3H]alpha-D-mannose was obtained from Amersham. […] Syntheses of tri-mannosides was as reported earlier by Oscarson and co-workers (1993). Weighed amounts of tri-mannosides were dissolved in double distilled water to give stock solutions of 0.87 M man-(1,2)-man-(1,2)-man, 0.25 M man-(1,2)-man-(1,3)-man, 0.27 M man-(1,2)-man-(1,6)-man, 0.30 M man-(1,3)-man-(1,6)-man, 0.13 M man-(1,6)-man-(1,6)-man. Similarly, alkyl mannosides were dissolved in double distilled water to give stock solutions of 100 mM methyl mannoside, 59.8 mM ethyl mannoside, 45.9 mM propyl mannoside, 51.9 mM butyl mannoside, 17.3 mM pentyl mannoside, 20.8 mM hexyl mannoside, 15.3 mM heptyl mannoside, 15.2 mM octyl mannoside. pNPalphaMan and MeUmbalphaMan (6 mg each) were dissolved in 20 μl DMSO and diluted to 20 mM using double distilled water. Binding experiments were performed using six different concentrations of [^3H]-alpha-D-mannose (final concentrations 43.5 μM, 29.0 μM, 19.3 μM, 12.9 μM, 8.6 μM, 5.7 μM). FimHtrJ96 obtained by growing bacteria in minimal medium was used in all binding experiments. 180 μl protein at a concentration of about 500 nM was mixed with 20 μl of the radioactive ligand, and incubated at 37° C. for 20 min. To separate free ligand from bound, the mixture was rapidly filtrated through a Protran BA 85 Cellulose-nitrate filter (Schleicher & Schuell, Dassel, Germany), and washed once with 1 ml of ice-cold 1× PBS (phosphate buffered saline). Filter-bound radioactivity was measured by scintillation spectrometry within 24 hours. The displacement experiments were performed using six different concentrations (final concentrations in the range 0.0˜43.5 μM) of the inhibitor, in the presence of 43.5 μM [^3H]-alpha-D-mannose. 20 μl radioactive ligand, 20 μl inhibitor at decreasing concentrations, and 160 μl protein (500 nM) were mixed, and the experiments performed as above. All experiments were performed in duplicates. For determination of KD for α-D-mannose, a hyperbolic curve (y=P1x/(P2+x), where P2=KD) was fitted to the data. For the displacement experiments, the curve y=P1/(P2+x), where P2 is the concentration of the inhibitor displacing 50% of the labelled ligand, [I]0.5 was used instead. To calculate the inhibitor dissociation constant (KI) the Cheng & Prusoff equation (KI=[I]0.5/([L]/KL+1); KL is the constant of dissociation for the ligand) (Cheng and Prusoff, 1973), was used when both the concentration of the radioactive ligand (L) and the displacing agent (I) are in excess over the protein (LT>>PT;IT>>PT, T indicates total concentration). […] A plot of IT/((1−Y)*(LT/KL)−Y) against 1/Y gives a straight line with a slope of KI.

Assay [3] addresses T3, FimHtrF18 (Escherichia coli, UniProt P08191, N91S/S99N/V48A).
T3 construct: coding for the lectin domain of FimH (residues 1-158) with a C-terminal 6-histidine tag; made in house; host or cells: E. coli HB101 (lacking the fim operon), periplasmic extract, plasmid pPKL316
The class given is binding, E. coli fecal (F18) strain. Conditions: for Kd: Table 3, [3H]-mannose displacement assay (mannose measured directly), read-out: KD F18; for ΔG° F18: Table 3, calculated from KD. The protocol: as §1, §2

Setting [4] is: displacement assay, FimHtrJ96, read-out: KD.
The mark [5] stands for this setting: quoted in b67 for comparison with docking, method not given, read-out: experimentally determined dissociation constant Kd.
The mark [6] stands for this setting: Table 3, [3H]-mannose displacement assay (mannose measured directly), read-out: KD J96.

T3 sequence (P08191 22-179 V48A/N91S/S99N): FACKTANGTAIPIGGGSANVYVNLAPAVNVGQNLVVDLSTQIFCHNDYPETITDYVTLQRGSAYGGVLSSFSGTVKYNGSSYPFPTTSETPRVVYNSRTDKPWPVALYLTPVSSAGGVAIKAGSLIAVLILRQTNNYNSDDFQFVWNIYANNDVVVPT
T2 sequence (P08191 22-179 V48A/N91S/G94E/S99N): as the sequence (P08191 22-179 V48A/N91S/S99N) above, with G73E counted along it
T1 sequence (P08191 22-179): as the sequence (P08191 22-179 V48A/N91S/S99N) above, with A27V, S70N, N78S counted along it

In general, Kd refers to the constant that tells how readily two partners part at equilibrium. On to `OC[C@H]1O[C@H](O)C[C@@H](O)[C@@H]1O` [2-deoxy α-D-mannose], for which, in assay [1], the Kd was 300 µM. For the same compound, in assay [1] (Table 2, calculated from KD), the “ΔG°” value was -4.8 kcal/mol.

Regarding `CCCCO[C@H]1O[C@H](CO)[C@@H](O)[C@H](O)[C@@H]1O` [Butyl man, butyl mannoside], the Kd in assay [1] (Table 1, O1 alkyl and aryl mannosides, SPR and displacement binding experiments, read-out: KD) turned out to be 0.151 µM; in assay [1] ([3H]-mannose binding or displacement assay, FimHtrJ96, read-out: KD) it was 0.15 µM. Also, in assay [1] (Table 1, calculated from KD), the “ΔG°” value is -9.3 kcal/mol. In assay [1] (butyl mannoside vs D-mannose, displacement assay), the “binding strength relative to D-mannose (times stronger)” value is given as “around 15 times”.

On to `CCO[C@H]1O[C@H](CO)[C@@H](O)[C@H](O)[C@@H]1O` [Ethyl man, ethyl mannoside], for which the Kd in assay [1] worked out at 1.2 µM. Moreover, in assay [1] (Table 1, calculated from KD), the “ΔG°” value was -8.1 kcal/mol.

For `CCCCCCCO[C@H]1O[C@H](CO)[C@@H](O)[C@H](O)[C@@H]1O` [Heptyl man, heptyl α-D-mannopyranoside], the Kd in assay [1] was determined as 0.005 µM. In assay [1] (SPR and displacement binding experiments, Table 1 series), the ranking of binders result is on record as “best binder”. Besides, the “ΔG°” value in assay [1] (Table 1, calculated from KD) was -11.3 kcal/mol.

In the case of `CCCCCCO[C@H]1O[C@H](CO)[C@@H](O)[C@H](O)[C@@H]1O` [Hexyl man, hexyl mannoside], the Kd in assay [1] was found to be 0.01 µM. Further, the “ΔG°” value in assay [1] (Table 1, calculated from KD) was -10.9 kcal/mol.

`CO[C@H]1O[C@H](CO)[C@@H](O)[C@H](O)[C@@H]1O` [Methyl man, Methyl mannoside]: the Kd in assay [1] was found to be 2.2 µM. The “ΔG°” value in assay [1] (Table 1, calculated from KD) is -7.7 kcal/mol.

For the compound `CCCCCCCCO[C@H]1O[C@H](CO)[C@@H](O)[C@H](O)[C@@H]1O` [Octyl man, octyl mannoside], the Kd in assay [1] is 0.022 µM. The “ΔG°” value in assay [1] (Table 1, calculated from KD) is -10.4 kcal/mol.

For `CCCCCO[C@H]1O[C@H](CO)[C@@H](O)[C@H](O)[C@@H]1O` [Pentyl man, pentyl mannoside], the Kd in assay [1] is 0.025 µM. In assay [1] (Table 1, calculated from KD), the “ΔG°” value is -10.4 kcal/mol.

For `CCCO[C@H]1O[C@H](CO)[C@@H](O)[C@H](O)[C@@H]1O` [Propyl man, propyl mannoside], the Kd in assay [1] stood at 0.3 µM. For the same compound, the “ΔG°” value in assay [1] (Table 1, calculated from KD) is -8.9 kcal/mol.

Consider `Cc1cc(=O)oc2cc(O[C@H]3O[C@H](CO)[C@@H](O)[C@H](O)[C@@H]3O)ccc12` [Umbelliferyl man, 4-Methylumbelliferyl α-mannoside], for which, in assay [1] (Table 1, calculated from KD), the “ΔG°” value is -10.8 kcal/mol. The Kd in assay [1] (setting [4]) came to 0.012 µM; in assay [1] (setting [5]), 0.02 µM.

With `O=C(CO)[C@@H](O)[C@H](O)[C@H](O)CO` [fructose], the Kd in assay [1] turned out to be 31 µM. In addition, the “ΔG°” value in assay [1] (Table 2, calculated from KD) was -6.1 kcal/mol. The “affinity relative to mannose (times lower)” value in assay [1] (fructose vs mannose, FimH) was 15 times.

Consider `O=C[C@H](O)[C@@H](O)[C@@H](O)[C@H](O)CO` [galactose], for which the Kd in assay [1] was 100000 µM. Also, in assay [1] (Table 2, calculated from KD), the “ΔG°” value is -1.4 kcal/mol.

As for `OC[C@H]1O[C@H](O[C@@H]2[C@@H](O[C@@H]3C(O)O[C@H](CO)[C@@H](O)[C@@H]3O)O[C@H](CO)[C@@H](O)[C@@H]2O)[C@@H](O)[C@@H](O)[C@@H]1O` (stereo partly shown) [man-(1,2)-man-(1,2)-man], in assay [2], the Kd was found to be 3.95 µM and the “ΔG° CI#4” value was -7.7 kcal/mol. Moreover, in assay [3], the Kd is 3.25 µM and the “ΔG° F18” value is -7.8 kcal/mol. In assay [1] (setting [6]), the Kd stood at 1.6 µM. Moreover, in assay [1], the “ΔG° J96” value was -8.2 kcal/mol.

As for `OC[C@H]1O[C@H](O[C@@H]2[C@@H](O[C@H]3[C@H](O)[C@@H](CO)OC(O)[C@H]3O)O[C@H](CO)[C@@H](O)[C@@H]2O)[C@@H](O)[C@@H](O)[C@@H]1O` (stereo partly shown) [man-(1,2)-man-(1,3)-man], in assay [2], the Kd was found to be 3.65 µM and the “ΔG° CI#4” value was -7.7 kcal/mol. Besides, in assay [3], the Kd turned out to be 3.05 µM and the “ΔG° F18” value was -7.8 kcal/mol. Besides, the Kd in assay [1] (setting [6]) is 1.8 µM. In addition, the “ΔG° J96” value in assay [1] was -8.1 kcal/mol.

In the case of `O=[N+]([O-])c1ccc(OC2O[C@H](CO)[C@@H](O)[C@H](O)[C@@H]2O)cc1` (stereo partly drawn) [p-Nitrophenyl man, p-Nitrophenyl α-mannoside], in assay [1] (Table 1, calculated from KD), the “ΔG°” value was -10.3 kcal/mol. Further, the Kd in assay [1] (setting [4]) is 0.026 µM; in assay [1] (setting [5]), 0.044 µM.

`OC[C@H]1O[C@@](CO)(O[C@H]2O[C@H](CO)[C@@H](O)[C@H](O)[C@H]2O)[C@@H](O)[C@@H]1O` [sucrose]: the Kd in assay [1] stood at 12800 µM. Further, the “ΔG°” value in assay [1] (Table 2, calculated from KD) is -2.6 kcal/mol.
